Assay results: patent US5886156A, “Synthetic peptide lung surfactants having covalently bonded antioxidants” (Merrell Pharmaceuticals Inc., priority 1996, dated 1999)

Test system: surfactant-deficient lavaged rat lungs
Assay: Isolated rat lavaged lung model (adult rat lung model), pressure-volume curve
Parameters: species or system rat (male Sprague Dawley)
Conditions: for PC5 (% TLC): per cent of total lung capacity at 5 cm H2O pressure, deflation limb of P-V curve / PC10 (% TLC): per cent of total lung capacity at 10 cm H2O pressure, deflation limb of P-V curve: peptide-DPPC mixture (or DPPC alone) instilled into lavaged excised rat lungs, 25 mg phospholipid, 100-125 mg/kg, 37° C.; for RESTORATION % (per cent restoration based on PC5 values): relative to surfactant-sufficient (100) and surfactant-deficient (0) lungs, peptide-DPPC mixture or DPPC alone
Excerpt: Methods of testing the synthetic surfactant preparations for efficacy are well known in the art. For example, the synthetic surfactant preparations of the present invention can be tested in any appropriate manner such as in the adult rat lung model (Ikegami, et al., (1979) Pediatr. Res. 13, 777-780). Pressure-volume characteristics of surfactant-depleted rat lungs are similar to those of lungs of infants with hyaline membrane disease and restoration of the pressure-volume relationship of the lung to normal is related to the amount of surfactant instilled in a dose dependent manner. (Bermel, M. S., et al., […] excised rat lungs as a model of surfactant deficiency, Lung 162: 99-113 (1984)). The experimental procedures for animal preparation, pressure-volume curve registration and lung lavage are adapted from those described by Ikegami et al., Pediatr. Res. 11: 178-182 (1977) and Pediatr. Res. 13: 777-780 (1979, and Bermel et al, Lung 162: 99-113 (1984). Male Sprague Dawley rats (200-250 g) are anesthetized with sodium pentobarbital and exsanguinated. The trachea is cannulated and the thoracic organs are removed en bloc. After removal of the adventitious tissue, the trachea and lungs (~2 g) are suspended in saline (0.9%), placed in a vacuum chamber, and degassed according to the procedure of […] et al. the degassed lungs are suspended in saline in a 37° C., jacketed reservoir and the tracheal cannula is connected both to a water manometer and a glass syringe by a T-tube. The glass syringe is placed in an infusion/withdrawal pump. […] The total volume of air infused is recorded as the total lung capacity (TLC) which is generally 14-15 ml. The lungs are then deflated at a rate of 2.5 ml/min until zero pressure is attained. During deflation, pressure is read from the water manometer at 1 cm intervals and recorded. […] After degassing and equilibration, the lungs are rendered surfactant-deficient by repeated lavage with 5 ml/g lavage buffer (0.9% NaCl, 10 mM HEPES, pH 7.4). […] At this point, the lungs are considered surfactant-deficient. […] The mixture is then vortexed again, degassed if foamy, and 2 ml of the test mixture are introduced into and withdrawn from the lungs four times by syringe. When the test mixture is reintroduced to the lungs for the fifth time, it is allowed to remain in the lungs. This procedure is adopted to encourage even distribution of the material throughout the lung. The lungs are degassed, allowed to equilibrate at 37° C. for 5 min, and a P-V measurement is performed. Lungs are studied while supported in saline at 37° C. as opposed to ambient temperature since the physical characteristics of the surfactants may be dependent upon temperature. […] Data are presented in terms of the % TLC. […] Comparisons are based on per cent restoration=([…] ×100/(PC5 (sufficient) -PC5(deficient)) and made by one-way analysis of variance using the general linear models procedure with specific contrasts of the means (SAS Institute Inc., Cary, N.C.). […] The restoration based upon the PC5 values was used to compare the test mixtures.

Compound	effect on the pressure-volume (P-V) curves of the lavaged lung (DPPC alone, without peptide)	PC5 (% TLC): per cent of total lung capacity at 5 cm H2O pressure, deflation limb of P-V curve	PC10 (% TLC): per cent of total lung capacity at 10 cm H2O pressure, deflation limb of P-V curve	RESTORATION % (per cent restoration based on PC5 values)
CCCCCCCCCCCCCCCC(=O)OC[C@H](COP(=O)([O-])OCC[N+](C)(C)C)OC(=O)CCCCCCCCCCCCCCC [DPPC, L-α-dipalmitoylphosphatidylcholine]	no significant effect	13 ± 1 % TLC	31 ± 2 % TLC	11 ± 8%
HBB-Aoc-Glu-Trp-Ala-Lys-NH2 [SEQ ID NO: 5]		55 ± 4 % TLC	77 ± 2 % TLC	81 ± 7%
